Assay results taken from PMC5218480 (PLoS ONE, 2017).

Tested on: MV-4-11 cells
Assay: Gene expression microarray analysis (Affymetrix PrimeView) and GSEA
Assay type: cell-based, human
Parameters: RFU PODN (11730768_x_at) / Fold change /veh PODN (11730768_x_at) / RFU LINC00158 (11744669_a_at) / Fold change /veh LINC00158 (11744669_a_at) / RFU DUSP10 (11751237_a_at) / Fold change /veh DUSP10 (11751237_a_at) / RFU ID3 (11757404_x_at) / Fold change /veh ID3 (11757404_x_at) / RFU PLEKHG5 (11737974_s_at) / Fold change /veh PLEKHG5 (11737974_s_at) / RFU LRRC4B (11730491_at) / Fold change /veh LRRC4B (11730491_at) / RFU GIMAP4 (11747438_a_at) / Fold change /veh GIMAP4 (11747438_a_at) / RFU KRT8 (11758183_x_at) / Fold change /veh KRT8 (11758183_x_at) / RFU CNN1 (11734310_a_at) / Fold change /veh CNN1 (11734310_a_at) / RFU VPS37D (11726825_at) / Fold change /veh VPS37D (11726825_at) / RFU C10orf10 (11716522_x_at) / Fold change /veh C10orf10 (11716522_x_at) / RFU KIR2DL2 /// KIR2DL4 /// KIR2DL5A /// KIR2DL5B /// KIR2DS1 /// KIR2DS2 /// KIR2DS3 /// KIR2DS4 /// KIR3DL3 /// KIR3DL3 /// KIR3DS1 (11738374_at) / Fold change /veh KIR2DL2 /// KIR2DL4 /// KIR2DL5A /// KIR2DL5B /// KIR2DS1 /// KIR2DS2 /// KIR2DS3 /// KIR2DS4 /// KIR3DL3 /// KIR3DL3 /// KIR3DS1 (11738374_at) / RFU C1QL1 (11718748_at) / Fold change /veh C1QL1 (11718748_at) / RFU TMPRSS4 (11747572_a_at) / Fold change /veh TMPRSS4 (11747572_a_at) / RFU HAMP (11756126_x_at) / Fold change /veh HAMP (11756126_x_at) / RFU RNFT2 (11725882_a_at) / Fold change /veh RNFT2 (11725882_a_at) / RFU NR4A2 (11747474_a_at) / Fold change /veh NR4A2 (11747474_a_at) / RFU ABCC12 (11746883_a_at) / Fold change /veh ABCC12 (11746883_a_at) / RFU TMEM136 (11760407_x_at) / Fold change /veh TMEM136 (11760407_x_at) / RFU CLDN22 /// WWC2 (11732394_at) / Fold change /veh CLDN22 /// WWC2 (11732394_at) / RFU HLA-DPB1 (11760878_x_at) / Fold change /veh HLA-DPB1 (11760878_x_at) / RFU SPINT1 (11716480_a_at) / Fold change /veh SPINT1 (11716480_a_at) / RFU GAP43 (11754022_s_at) / Fold change /veh GAP43 (11754022_s_at) / RFU A4GNT (11735810_at) / Fold change /veh A4GNT (11735810_at) / RFU PRB3 (11715151_x_at) / Fold change /veh PRB3 (11715151_x_at) / RFU TUBB4B (11761932_at) / Fold change /veh TUBB4B (11761932_at) / RFU CAPN14 (11732068_a_at) / Fold change /veh CAPN14 (11732068_a_at) / RFU TMCC2 (11721928_a_at) / Fold change /veh TMCC2 (11721928_a_at) / RFU IRGQ (11745062_a_at) / Fold change /veh IRGQ (11745062_a_at) / RFU FAM174B (11720279_a_at) / Fold change /veh FAM174B (11720279_a_at) / RFU TMPRSS4 (11748680_a_at) / Fold change /veh TMPRSS4 (11748680_a_at) / RFU FAM212B (11763350_a_at) / Fold change /veh FAM212B (11763350_a_at) / RFU PLEKHG5 (11743358_a_at) / Fold change /veh PLEKHG5 (11743358_a_at) / RFU ZSCAN30 (11745921_a_at) / Fold change /veh ZSCAN30 (11745921_a_at) / RFU CMKLR1 (11741424_a_at) / Fold change /veh CMKLR1 (11741424_a_at) / RFU LOC101060620 /// MAPK8IP1 (11723275_at) / Fold change /veh LOC101060620 /// MAPK8IP1 (11723275_at) / RFU SPTSSB (11747773_x_at) / Fold change /veh SPTSSB (11747773_x_at) / RFU PRSS12 (11739890_at) / Fold change /veh PRSS12 (11739890_at) / RFU BIN1 (11741810_x_at) / Fold change /veh BIN1 (11741810_x_at) / RFU WNT11 (11732464_a_at) / Fold change /veh WNT11 (11732464_a_at) / RFU C10orf10 (11716521_a_at) / Fold change /veh C10orf10 (11716521_a_at) / RFU C5orf56 (11738089_at) / Fold change /veh C5orf56 (11738089_at) / RFU CYB561 (11721691_x_at) / Fold change /veh CYB561 (11721691_x_at) / RFU ANKRD19P (11752326_a_at) / Fold change /veh ANKRD19P (11752326_a_at) / RFU OR2T12 /// OR2T33 /// OR2T8 (11738714_s_at) / Fold change /veh OR2T12 /// OR2T33 /// OR2T8 (11738714_s_at) / RFU VCAN (11748164_a_at) / Fold change /veh VCAN (11748164_a_at) / RFU JSRP1 (11732532_at) / Fold change /veh JSRP1 (11732532_at) / RFU KRTAP10-11 (11738290_x_at) / Fold change /veh KRTAP10-11 (11738290_x_at) / RFU MYO3A (11730013_a_at) / Fold change /veh MYO3A (11730013_a_at) / RFU EBF3 (11725865_a_at) / Fold change /veh EBF3 (11725865_a_at) / RFU CAMK2N1 (11719241_x_at) / Fold change /veh CAMK2N1 (11719241_x_at) / RFU C5orf56 (11738088_a_at) / Fold change /veh C5orf56 (11738088_a_at) / RFU OLFML3 (11715873_a_at) / Fold change /veh OLFML3 (11715873_a_at) / RFU LOC100653217 /// NTM (11731650_a_at) / Fold change /veh LOC100653217 /// NTM (11731650_a_at) / RFU MAPK11 (11762145_a_at) / Fold change /veh MAPK11 (11762145_a_at) / RFU FIZ1 (11724087_x_at) / Fold change /veh FIZ1 (11724087_x_at) / RFU OASL (11726364_x_at) / Fold change /veh OASL (11726364_x_at) / RFU SOX15 (11748057_x_at) / Fold change /veh SOX15 (11748057_x_at) / RFU CD79A (11719716_a_at) / Fold change /veh CD79A (11719716_a_at) / RFU HIST1H1D (11736915_at) / Fold change /veh HIST1H1D (11736915_at) / RFU CASKIN2 (11723855_a_at) / Fold change /veh CASKIN2 (11723855_a_at) / RFU LOC730098 (11760151_x_at) / Fold change /veh LOC730098 (11760151_x_at) / RFU OR4N2 (11742367_at) / Fold change /veh OR4N2 (11742367_at) / RFU PRRT2 (11749266_a_at) / Fold change /veh PRRT2 (11749266_a_at) / RFU SNX32 (11753110_a_at) / Fold change /veh SNX32 (11753110_a_at) / RFU CDHR5 (11726645_a_at) / Fold change /veh CDHR5 (11726645_a_at) / RFU RCAN1 (11760418_a_at) / Fold change /veh RCAN1 (11760418_a_at) / RFU FAM167A (11723789_a_at) / Fold change /veh FAM167A (11723789_a_at) / RFU FAM26E (11764081_at) / Fold change /veh FAM26E (11764081_at) / RFU ISYNA1 (11749810_s_at) / Fold change /veh ISYNA1 (11749810_s_at) / RFU ACY1 (11761880_at) / Fold change /veh ACY1 (11761880_at) / RFU 11764098_at / Fold change /veh 11764098_at / RFU SAMD14 (11745864_x_at) / Fold change /veh SAMD14 (11745864_x_at) / RFU NPB (11741838_a_at) / Fold change /veh NPB (11741838_a_at) / RFU TMPRSS6 (11731388_a_at) / Fold change /veh TMPRSS6 (11731388_a_at) / RFU KRTAP10-2 (11738614_at) / Fold change /veh KRTAP10-2 (11738614_at) / RFU ARHGAP8 /// PRR5-ARHGAP8 (11727945_x_at) / Fold change /veh ARHGAP8 /// PRR5-ARHGAP8 (11727945_x_at) / RFU KRTAP5-7 /// NADSYN1 (11734609_at) / Fold change /veh KRTAP5-7 /// NADSYN1 (11734609_at) / RFU RASL12 (11751679_a_at) / Fold change /veh RASL12 (11751679_a_at) / RFU CDKN2B (11736163_a_at) / Fold change /veh CDKN2B (11736163_a_at) / RFU PRF1 (11729649_at) / Fold change /veh PRF1 (11729649_at) / RFU, ZNF638 /// ZNF638-IT1 / Fold change vs veh, ZNF638 /// ZNF638-IT1 / RFU, PANK3 / Fold change vs veh, PANK3 / RFU, SH3YL1 / Fold change vs veh, SH3YL1 / RFU, ZEB2 / Fold change vs veh, ZEB2 / RFU, NRIP1 / Fold change vs veh, NRIP1 / RFU, PTTG1IP / Fold change vs veh, PTTG1IP / RFU, CAPN2 / Fold change vs veh, CAPN2 / RFU, MED14 / Fold change vs veh, MED14 / RFU, SNORA58 / Fold change vs veh, SNORA58 / RFU, C1orf63 / Fold change vs veh, C1orf63 / RFU, LRRFIP1 / Fold change vs veh, LRRFIP1 / RFU, NDUFAF7 / Fold change vs veh, NDUFAF7 / RFU, SLC12A2 / Fold change vs veh, SLC12A2 / RFU, IBTK / Fold change vs veh, IBTK / RFU, ESF1 / Fold change vs veh, ESF1 / Fold change vs veh, TMEM50B / RFU, TAOK1 / Fold change vs veh, TAOK1 / RFU, ACBD3 / Fold change vs veh, ACBD3 / RFU, TMA16 / Fold change vs veh, TMA16 / RFU, RWDD3 / Fold change vs veh, RWDD3 / RFU, BCAT1 / Fold change vs veh, BCAT1 / RFU, EDEM3 / Fold change vs veh, EDEM3 / RFU, TMEM33 / Fold change vs veh, TMEM33 / RFU, WDR75 / Fold change vs veh, WDR75 / RFU, AHCTF1 / Fold change vs veh, AHCTF1 / RFU, TFRC / Fold change vs veh, TFRC / RFU, ZDHHC17 / Fold change vs veh, ZDHHC17 / RFU, NOM1 / Fold change vs veh, NOM1 / RFU, ARL8B / Fold change vs veh, ARL8B / RFU, ZBTB11 / Fold change vs veh, ZBTB11 / RFU, TAMM41 / Fold change vs veh, TAMM41 / RFU, KIAA1704 /// LOC100996395 / Fold change vs veh, KIAA1704 /// LOC100996395 / RFU, ING1 / Fold change vs veh, ING1 / RFU, TRMT61B / Fold change vs veh, TRMT61B / RFU, FUBP3 / Fold change vs veh, FUBP3 / RFU, TP53 / Fold change vs veh, TP53 / RFU, TNKS2 / Fold change vs veh, TNKS2 / RFU, ZFP14 / Fold change vs veh, ZFP14 / RFU, ACTR2 / Fold change vs veh, ACTR2 / RFU, PPP3R1 / Fold change vs veh, PPP3R1 / RFU, PIK3R1 / Fold change vs veh, PIK3R1 / RFU, HNRNPA1 / Fold change vs veh, HNRNPA1 / RFU, RNF170 / Fold change vs veh, RNF170 / RFU, ZNF28 / Fold change vs veh, ZNF28 / RFU, RNGTT / Fold change vs veh, RNGTT / RFU, OGT / Fold change vs veh, OGT / RFU, BRD1 / Fold change vs veh, BRD1 / RFU, MARS / Fold change vs veh, MARS / RFU, ZNF655 / Fold change vs veh, ZNF655 / RFU, FAHD1 / Fold change vs veh, FAHD1 / RFU, BDP1 / Fold change vs veh, BDP1 / RFU, LRRCC1 / Fold change vs veh, LRRCC1 / RFU, ARID1A / Fold change vs veh, ARID1A / RFU, ZNF146 / Fold change vs veh, ZNF146 / RFU, ZNF330 / Fold change vs veh, ZNF330 / RFU, GPN3 / Fold change vs veh, GPN3 / RFU, C9orf123 / Fold change vs veh, C9orf123 / RFU, N4BP2L2 / Fold change vs veh, N4BP2L2 / RFU, ARFIP1 / Fold change vs veh, ARFIP1 / RFU, FAM179B / Fold change vs veh, FAM179B / RFU, BCL10 / Fold change vs veh, BCL10 / RFU, UHRF1BP1L / Fold change vs veh, UHRF1BP1L / RFU, BET1 / Fold change vs veh, BET1 / RFU, CNOT2 / Fold change vs veh, CNOT2 / RFU, ZNF268 / Fold change vs veh, ZNF268 / Fold change vs veh, ZNF507 / RFU, DGCR2 / Fold change vs veh, DGCR2 / RFU, WDSUB1 / Fold change vs veh, WDSUB1 / Fold change vs veh, HSP90B1 /// MIR3652 / RFU, ADSS / Fold change vs veh, ADSS / RFU, GK / Fold change vs veh, GK / RFU, ZNF148 / Fold change vs veh, ZNF148 / RFU, TAF9 / Fold change vs veh, TAF9 / RFU, SLC1A5 / Fold change vs veh, SLC1A5 / RFU, SLMO2 / Fold change vs veh, SLMO2 / RFU, ABCC4 / Fold change vs veh, ABCC4 / RFU, LOC101060439 /// RAP1B / Fold change vs veh, LOC101060439 /// RAP1B / RFU, RFX7 / Fold change vs veh, RFX7 / RFU, GTPBP10 / Fold change vs veh, GTPBP10 / RFU, CNEP1R1 / Fold change vs veh, CNEP1R1 / RFU, BIVM-ERCC5 /// ERCC5 / Fold change vs veh, BIVM-ERCC5 /// ERCC5 / RFU, ILF3 / Fold change vs veh, ILF3 / RFU 11762660_at / Fold change /veh 11762660_at / RFU VCAN (11757783_s_at) / Fold change /veh VCAN (11757783_s_at) / RFU DDX43 (11728927_at) / Fold change /veh DDX43 (11728927_at) / RFU KRT8 (11758188_x_at) / Fold change /veh KRT8 (11758188_x_at) / RFU NKD1 (11759106_at) / Fold change /veh NKD1 (11759106_at) / RFU SRD5A1 (11742802_a_at) / Fold change /veh SRD5A1 (11742802_a_at) / RFU TPSAB1 /// TPSB2 (11721975_s_at) / Fold change /veh TPSAB1 /// TPSB2 (11721975_s_at) / RFU GSTM3 (11746129_a_at) / Fold change /veh GSTM3 (11746129_a_at) / RFU IL23R (11737362_x_at) / Fold change /veh IL23R (11737362_x_at) / RFU TMEM51 (11727254_a_at) / Fold change /veh TMEM51 (11727254_a_at) / RFU PIWIL2 (11732686_x_at) / Fold change /veh PIWIL2 (11732686_x_at) / RFU ORM1 (11744905_x_at) / Fold change /veh ORM1 (11744905_x_at) / RFU CCDC152 (11743942_at) / Fold change /veh CCDC152 (11743942_at) / RFU ECM1 (11717891_a_at) / Fold change /veh ECM1 (11717891_a_at) / RFU IL23R (11748794_a_at) / Fold change /veh IL23R (11748794_a_at) / RFU TNFAIP8L3 (11732012_x_at) / Fold change /veh TNFAIP8L3 (11732012_x_at) / RFU MBOAT4 (11741988_at) / Fold change /veh MBOAT4 (11741988_at) / RFU 11764193_at / Fold change /veh 11764193_at / RFU TMEM53 (11763286_at) / Fold change /veh TMEM53 (11763286_at) / RFU MAGEB2 (11727129_at) / Fold change /veh MAGEB2 (11727129_at) / RFU TMEM200A (11744735_a_at) / Fold change /veh TMEM200A (11744735_a_at) / RFU CCDC152 (11751479_a_at) / Fold change /veh CCDC152 (11751479_a_at) / RFU FAM211A (11726209_a_at) / Fold change /veh FAM211A (11726209_a_at) / RFU RGS16 (11746705_a_at) / Fold change /veh RGS16 (11746705_a_at) / RFU VCAN (11755009_s_at) / Fold change /veh VCAN (11755009_s_at) / RFU RHOB (11743442_s_at) / Fold change /veh RHOB (11743442_s_at) / RFU RGS16 (11720943_a_at) / Fold change /veh RGS16 (11720943_a_at) / RFU RGS16 (11720944_at) / Fold change /veh RGS16 (11720944_at) / RFU, VPS4B / Fold change vs veh, VPS4B / RFU, CREB1 / Fold change vs veh, CREB1 / RFU, DNAJC13 / Fold change vs veh, DNAJC13 / RFU, GNAQ / Fold change vs veh, GNAQ / RFU, CDK5R1 / Fold change vs veh, CDK5R1 / RFU, ZRANB3 / Fold change vs veh, ZRANB3 / RFU, CUL4A / Fold change vs veh, CUL4A / RFU, CCNY / Fold change vs veh, CCNY / RFU, UFL1 / Fold change vs veh, UFL1 / RFU, COG3 / Fold change vs veh, COG3 / RFU, DIAPH2 / Fold change vs veh, DIAPH2 / RFU, SKA2 / Fold change vs veh, SKA2 / RFU, AFF3 / Fold change vs veh, AFF3 / RFU, LMF1 / Fold change vs veh, LMF1 / RFU, IPO11 / Fold change vs veh, IPO11 / RFU, DFFB / Fold change vs veh, DFFB / RFU, FOXP1 / Fold change vs veh, FOXP1 / RFU, CARD8 / Fold change vs veh, CARD8 / RFU, STRN3 / Fold change vs veh, STRN3 / RFU, ADK / Fold change vs veh, ADK / RFU, RASSF2 / Fold change vs veh, RASSF2 / RFU, WIPF1 / Fold change vs veh, WIPF1 / RFU, LARP1B / Fold change vs veh, LARP1B / RFU, RASA1 / Fold change vs veh, RASA1 / RFU, RB1 / Fold change vs veh, RB1 / RFU, PPFIA1 / Fold change vs veh, PPFIA1 / RFU, MAT2A / Fold change vs veh, MAT2A / RFU, CCT5 / Fold change vs veh, CCT5 / RFU, WDR92 / Fold change vs veh, WDR92 / RFU, CUX1 / Fold change vs veh, CUX1 / RFU, TTC7A / Fold change vs veh, TTC7A / RFU, TMEM135 / Fold change vs veh, TMEM135 / RFU, DEPTOR / Fold change vs veh, DEPTOR / RFU, CPM / Fold change vs veh, CPM / RFU, DNAJB6 / Fold change vs veh, DNAJB6 / RFU, CACNA2D3 / Fold change vs veh, CACNA2D3 / RFU, DTX4 / Fold change vs veh, DTX4 / RFU, TFCP2 / Fold change vs veh, TFCP2 / RFU, GMCL1 /// GMCL1P1 / Fold change vs veh, GMCL1 /// GMCL1P1 / RFU, AEBP2 / Fold change vs veh, AEBP2 / RFU, SNHG1 /// SNORD22 /// SNORD25 /// SNORD26 /// SNORD27 /// SNORD28 /// SNORD29 /// SNORD31 / Fold change vs veh, SNHG1 /// SNORD22 /// SNORD25 /// SNORD26 /// SNORD27 /// SNORD28 /// SNORD29 /// SNORD31 / Fold change (Aza/veh), C12orf56 (ProbeSet 11735607_a_at) / Fold change (ACY-1035/veh), C12orf56 (ProbeSet 11735607_a_at) / Fold change (Aza/veh), FGFR1OP (ProbeSet 11751329_s_at) / Fold change (ACY-1035/veh), FGFR1OP (ProbeSet 11751329_s_at) / Fold change (Aza/veh), VPS36 (ProbeSet 11739960_a_at) / Fold change (ACY-1035/veh), VPS36 (ProbeSet 11739960_a_at) / RFU SYPL1 (11715823_x_at) / Fold change /veh SYPL1 (11715823_x_at) / RFU IGFBP7 (11715501_s_at) / Fold change /veh IGFBP7 (11715501_s_at) / RFU REEP3 (11722064_at) / Fold change /veh REEP3 (11722064_at) / RFU IGLL1 (11728026_x_at) / Fold change /veh IGLL1 (11728026_x_at): dose or concentration left out as unconfirmed
Conditions: ProbeSet 11748335_a_at; LIST B

For `Nc1ncn([C@@H]2O[C@H](CO)[C@@H](O)[C@H]2O)c(=O)n1` [azacitidine], which “Fold change vs veh, SLMO2” value is on record?
The value was 0.87.
